The results in this text go back to patent US20260242390A1, “TOTAL SYNTHESES OF PORTIMINE A AND ANALOGUES THEREOF AS SMALL MOLECULE MODULATORS OF NMD3” (priority 2023, published 2026).

One series deals with human PBMCs. The experiment in a line: Immunoblot of caspase-3 in PBMCs. Format: cell-based. An excerpt:
FIG. 3. Initial SAR studies: Assessing activity of PAL functionalized PTMA analogs. […] (A) PA and Ph-PA show less toxic to healthy PBMCs compared to Jurkat cells. […] (B) Immunoblot of caspase-3 in Jurkat and PBMCs with indicated conditions.
• 1) Portimine A and its functional analogs show stereo-selective acute toxicity in cancer cells (FIG. 1). […] (B) Structure of portimine related analogs: phenyl-portimine A (Ph-PA, 36) and epi-portimine A (ePA, 38). Structure of fully functionalized portimine A-based epimeric probe pair: portimine A-diazirine-alkyne (PA-DA, 35-2) and epi-portimine A-diazirine-alkyne (ePA-DA, 35-1). (C) Cell viability analysis of portimine A and analogs. Jurkat cells were treated with increasing concentrations of portimine A and analogs for 24 hours. All presented data as mean of biological replicated experiments (n=3). […] Jurkat cells were treated with portimine A or analogs for 12 hours at 10 nM. […] Structurally related negative control ePA and PB are non-toxic in all cell types in the current concentrate range. PBMCs (25k per well), Jurkat (10k per well). […] Cell cycle analysis in Jurkat cells (FIG. 2). […] Cell lysates were fractionated by sucrose gradient (5-50%) and each fraction were analyzed by western blot. eIF6 levels increase in 60S subunit fraction and decrease in ribosome-free fractions after PA treatment. […]

In a further series the test system is HCC1806. Put plainly: Cell toxicity in HCC1806 cells. The note with it: 36-hour treatment. Format: cell-based, human.

Each structure is given as a SMILES string.

On to `C=CC1=C[C@@H]2[C@@H]3O[C@]4(CC[C@H](O4)C(C)C[C@@H](O)C3=O)CC(O)C3=NCC[C@@]32CC1` (stereo partly shown) [PA, portimine A], for which, in the series with human PBMCs, the “caspase-3 cleavage in human PBMCs” value is “but not human PBMCs”. On the same count and under the same terms, to `C#CCCC1(CCNC(=O)c2ccc(C3=C[C@@H]4[C@@H]5O[C@]6(CC[C@H](O6)C(C)C[C@@H](O)C5=O)CC(O)C5=NCC[C@@]54CC3)cc2)N=N1` (stereo partly shown) [PA-DA, portimine A-diazirine-alkyne] belongs “but not human PBMCs”.

In the case of `C=CC1=C[C@@H]2[C@@H]3OC4(CC[C@H](O4)C(C)C[C@@H](O)C3=O)CC(=O)C3=NCC[C@@]32CC1` (stereo partly shown) [PB, portimine B], in the series with HCC1806, the “cell toxicity in breast (HCC1806) cancer cell line” value is on record as “minimal effects”. Same read-out and setting: the value for `C=CC1=C[C@@H]2[C@@H]3O[C@]4(CC[C@H](O4)C(C)C[C@@H](O)C3=O)C[C@@H](O)C3=NCC[C@@]32CC1` (stereo partly drawn) [ePA, epi-portimine A] was “minimal effects”.
